Laboratory results: US8486939B2, “Pyrimidinyl and 1,3,5-triazinyl benzimidazoles and their use in cancer therapy” (Pathway Therapeutics Inc., priority 2009, dated 2013)
Structures can show the parent of a compound that is named as a salt.

Row | SMILES | melting point
1 | COc1cccc2c1nc(C(F)F)n2-c1nc(-c2cn[nH]c2)nc(N2CCOCC2)n1 [Example 50, 2-(Difluoromethyl)-4-methoxy-1-[4-(4-morpholinyl)-6-(1H-pyrazol-4-yl)-1,3,5-triazin-2-yl]-1H-benzimidazole] | 289 to 291 °C
2 | COc1cccc2c1nc(C(F)F)n2-c1nc(Nc2cccnc2)nc(N2CCOCC2)n1 (as salt: methanesulfonate) [Example 2, 4-[2-(difluoromethyl)-4-methoxy-1H-benzimidazol-1-yl]-6-(4-morpholinyl)-N-(3-pyridinyl)-1,3,5-triazin-2-amine] | 279 to 282 °C
3 | COc1cc(N)cc2c1nc(C(F)F)n2-c1nc(-c2cn[nH]c2)nc(N2CCOCC2)n1 (as salt: methanesulfonate) [Example 66, 2-(Difluoromethyl)-4-methoxy-1-[4-(4-morpholinyl)-6-(1H-pyrazol-4-yl)-1,3,5-triazin-2-yl]-1H-benzimidazol-6-ylamine] | > 300 °C
4 | COc1cccc2c1nc(C(F)F)n2-c1nc(N2CCOCC2)c2ncn(-c3cccnc3)c2n1 [Example 59, 2-[2-(difluoromethyl)-4-methoxy-1H-benzimidazol-1-yl]-6-(4-morpholinyl)-9-(3-pyridinyl)-9H-purine] | 229 to 231 °C
5 | COc1cccc2c1nc(C(F)F)n2-c1nc(N2CCOCC2)nc2c1ncn2-c1cccnc1 [Example 61, 6-[2-(Difluoromethyl)-4-methoxy-1H-benzimidazol-1-yl]-2-(4-morpholinyl)-9-(3-pyridinyl)-9H-purine] | 206 to 209 °C
6 | COc1cccc2c1nc(C(F)F)n2-c1nc(N2CCOCC2)nc2c1ncn2-c1cncnc1 [Example 62, 6-[2-(Difluoromethyl)-4-methoxy-1H-benzimidazol-1-yl]-2-(4-morpholinyl)-9-(5-pyrimidinyl)-9H-purine] | 238 to 240 °C
7 | COc1ccc(-c2cc(N3CCOCC3)nc(-n3c(C(F)F)nc4ccccc43)n2)cn1 [Example 53] | 224 to 226 °C
8 | COc1cc(N)cc2c1nc(C(F)F)n2-c1nc(-c2cccnc2)cc(N2CCOCC2)n1 (as salt: methanesulfonate) [Example 68, 2-(Difluoromethyl)-4-methoxy-1-[4-(4-morpholinyl)-6-(3-pyridinyl)-2-pyrimidinyl]-1H-benzimidazol-6-ylamine] | 246 °C (dec.)
9 | COc1cc(N)cc2c1nc(C(F)F)n2-c1nc(-c2ccn(C)n2)nc(N2CCOCC2)n1 (as salt: methanesulfonate) [Example 65, 2-(Difluoromethyl)-4-methoxy-1-[4-(1-methyl-1H-pyrazol-3-yl)-6-(4-morpholinyl)-1,3,5-triazin-2-yl]-1H-benzimidazol-6-ylamine] | > 300 °C
10 | FC(F)c1nc2ccccc2n1-c1nc(Nc2cncnc2)nc(N2CCOCC2)n1 (as salt: methanesulfonate) [Example 35, 4-[2-(difluoromethyl)-1H-benzimidazol-1-yl]-6-(4-morpholinyl)-N-(5-pyrimidinyl)-1,3,5-triazin-2-amine] | 163 to 166 °C
11 | COc1cccc2c1nc(C(F)F)n2-c1nc(N2CCOCC2)nc(-n2ccnc2)n1 [Example 67, 2-(Difluoromethyl)-1-[4-(1H-imidazol-1-yl)-6-(4-morpholinyl)-1,3,5-triazin-2-yl]-4-methoxy-1H-benzimidazole] | 272 to 275 °C
12 | Nc1ncc(-c2cc(N3CCOCC3)nc(-n3c(C(F)F)nc4ccccc43)n2)cn1 [Example 58, 2-[2-(difluoromethyl)-1H-benzimidazol-1-yl]-6-(4-morpholinyl)-4,5′-bipyrimidine-2′-amine] | 281 to 285 °C
13 | COc1cc(N)cc2c1nc(C(F)F)n2-c1nc(N2CCOCC2)nc(-n2cccn2)n1 (as salt: methanesulfonate) [Example 64, 2-(Difluoromethyl)-4-methoxy-1-[4-(4-morpholinyl)-6-(1H-pyrazol-1-yl)-1,3,5-triazin-2-yl]-1H-benzimidazol-6-ylamine] | > 300 °C
